# In PMC7433713, “Beyond Single Nucleotide Polymorphisms: CYP3A5^∗3^∗6^∗7 Composite and ABCB1 Haplotype Associations to Tacrolimus Pharmacokinetics in Black and White Renal Transplant Recipients” (Frontiers in Genetics, 2020):
# Read-outs that look alike come from different tables or passages of the source.
# Assays:
# [1] = MPA trough at 12 h in study patients by CYP3A5*3*6*7 metabolic group; conditions: both sexes, human, in vivo, oral, ECMPS at steady state
# Procedure: (§1) Tacrolimus doses were adjusted to 4–9 ng/ml troughs based upon time post-transplant and clinical response using a program-specific minimization protocol. ECMPS was dose adjusted based upon clinical response. Estimated glomerular filtration rate (e-GFR) was calculated using the four-factor MDRD equation ([Levey et al., 1999]). Medication adherence was verified by transplant nurse clinician and medication adherence assessment by transplant pharmacist at enrollment. Ethnicity for two previous generations was verified prior to study.
# [2] = single chromosome; for AUC0–4, phenotypic mean [95% CI] / AUC*, phenotypic mean [95% CI]: race adjusted Thesias; for CL_F, phenotypic mean [95% CI]: sex-adjusted Thesias
# Procedure: (§2) All patients were at steady-state conditions for both tacrolimus and ECMPS. Patients were enrolled only if they had received the same dose of tacrolimus and ECMPS for ≥7 days prior to study. This was assumed to be sufficient to approach steady-state plasma concentrations. Proton pump inhibiters, H2 antagonists and antacids were discontinued at least 36 h prior to study. Patients took immunosuppressives between 5:30 to 6:30 PM prior to study, fasted and abstained from caffeine and alcohol for 12 h prior to study. At 6:00 AM, patients were admitted, vital signs documented and an intravenous angiocatheter inserted. A 0 h sample (∼15 ml) was collected prior to immunosuppressives for drug troughs and laboratory tests (ECMC Clinical Chemistry Laboratory). Oral study medications [(single lot of tacrolimus (Prograf) and ECMPS (Myfortic)] were administered at 7:00 AM. Patients remained upright throughout the study. Standardized low fat meals were provided after 4 h. Antihypertensives were administered after 1.5 h and non-immunosuppressives after 4 h. Blood samples (7 ml) were collected at 0 h and 1, 2, 3, 4, 6, 8, 10, and 12 h after drug administration. Whole blood samples were aliquoted within 30 minutes and stored at −70°C until analysis.
# (§3) Given the known linkage among all three ABCB1 SNPs, haplotype analysis was conducted. […] ABCB1 haplotype estimation was determined using the THESIAS program ([Tregouet et al., 2004]; [Tregouet and Garelle, 2007]). THESIAS uses a maximum likelihood algorithm for the simultaneous estimation of haplotype frequencies and their association to tacrolimus pharmacokinetic parameters.
# (§4) Tacrolimus troughs and pharmacokinetic concentrations were analyzed within 24 h at the ECMC Clinical Laboratory using the [sequence] tacrolimus assay (Abbott, Abbott Park, IL), a chemiluminescent microparticle immunoassay. The lower limit of detection was 0.5 ng/ml and intraday assay variability was <7%. The calibration standard curve ranged from 1 to 30 ng/ml and quality controls (QC) were 3.0, 12.0, and 25 ng/mL (Bio-Rad, Hercules, CA, United States). The interday coefficient of variation (CV) for each QC was <4% and intra-day CV was <5%. Selected troughs and peaks (N = 40 samples) were analyzed using a validated LCMSMS assay by a CLIA certified external analytical laboratory and compared to the results generated from the [sequence] tacrolimus assay with excellent agreement (R^2 = 0.98). For the tacrolimus LCMSMS assay, the interday and intraday CV were <5% at the low and high concentration QC.
# (§5) Pharmacokinetic parameters included area under the concentration versus time curve 0 to 12 h (AUC0–12 h), dose-normalized AUC0–12 (AUC^∗); 12-h trough (C12 h) and peak concentration (Cmax) with dose normalization and time to peak (T max). Oral clearance of tacrolimus was the ratio of dose to AUC0–12 h. Tacrolimus clearances were adjusted for TBW and LBW. AUC0–12 was determined by the linear trapezoidal rule using non-compartmental methods (Phoenix WINNONLIN Version 6.3. Pharsight Corp, Mountain View, Calif). C12 h, Cmax, AUC0–4 h, and AUC0–12 were dose-normalized to 1 mg dose equivalent.
# clinical = conditions: both, human, whole blood, oral
# Procedure: as §2, §3, §4, §5
# [3] = Tacrolimus pharmacokinetics stratified by CYP3A5 metabolic composite and ABCB1 3435 genotype; type: in vivo, human; conditions: for Tmax / AUC / Cmax / concentration at 12 h / clearance: human, whole blood, oral; for concentration at 12 h: read-out: C12hr; for clearance: read-out: CL/LBW (converted)
# Procedure: To assess the role of both CYP3A5 and ABCB1 variants on tacrolimus pharmacokinetics the CYP3A5 metabolic composite groups and the ABCB1 3435C > T (rs1045642) were included in a single analysis. […] Significant effects of both CYP3A5 and ABCB1 variants on tacrolimus pharmacokinetics was assessed using multivariate analysis of variance.
# All patient demographics and tacrolimus pharmacokinetic parameters were summarized by metabolic composite score for CYP3A5^∗3^∗6^∗7 using the mean and standard deviation for continuous variables. The potential trend between metabolic composite genotypes and association to tacrolimus pharmacokinetics were evaluated using the two-sided Jonckheere-Terpstra test for trends ([Jonckheere, 1983]). Post hoc pairwise comparisons were made using Holm-Bonferroni adjusted Wilcoxon rank sum tests (version 9.3, SAS Institute, Cary, NC). Significant combined effects reflecting composite metabolic CYP3A5 and ABCB1 variants on tacrolimus pharmacokinetics was assessed using multivariate analysis of variance ([Littell et al., 2006]). Significant effects are shown in bold.
# [4] = 12-h steady-state tacrolimus pharmacokinetics by CYP3A5*3*6*7 metabolic composite group in renal transplant recipients; type: in vivo, human
# Procedure: as §1
# Loss of protein function due to any one of these variants can occur independent of allelic status at the other two loci; thus assessment of any single SNP may be misleading as an indicator of enzyme function. Patients were assigned a metabolic composite designation as described earlier ([Campagne et al., 2018]) based upon the combined allelic status at all three independent loci (Figure 1). The Extensive Metabolizer phenotype was assigned to individuals with functional genes on both chromosomes. Patients were assigned the Poor Metabolizer phenotype if they were homozygous for the variant allele at any one of the three SNPs and thus CYP3A5 genes on both chromosomes are non-functional (Figure 1C). Patients were designated as Intermediate Metabolizer if they were heterozygous for one loss of function SNP at any of the three loci (Figure 1B). Finally, for patients who were heterozygous at two or more of the SNPs responsible for loss of function, the level of enzyme is dependent upon the arrangement of the variant alleles on each chromosome (Figure 1D). […] For this analysis double heterozygotes (Figure 1D) were conservatively assigned as an Intermediate Metabolizer since individuals could either be poor or intermediate metabolizers.
# [5] = ABCB1 3534 CC, CYP3A5 Extensive (N 6)
# [6] = ABCB1 3534 CC, CYP3A5 Intermediate (N 10)
# [7] = ABCB1 3534 CC, CYP3A5 Poor (N 13)
# [8] = ABCB1 3534 CT and TT, CYP3A5 Extensive (N 6)
# [9] = ABCB1 3534 CT and TT, CYP3A5 Intermediate (N 10)
# [10] = ABCB1 3534 CT and TT, CYP3A5 Poor (N 20)
# [11] = 2.35 mg, ABCB1 3534 CT and TT, CYP3A5 Poor (N 20)
# [12] = 2.46 mg, ABCB1 3534 CC, CYP3A5 Poor (N 13)
# [13] = 3.55 mg, ABCB1 3534 CT and TT, CYP3A5 Intermediate (N 10)
# [14] = 4 mg, ABCB1 3534 CC, CYP3A5 Intermediate (N 10)
# [15] = 5.08 mg, ABCB1 3534 CT and TT, CYP3A5 Extensive (N 6)
# [16] = 5.67 mg, ABCB1 3534 CC, CYP3A5 Extensive (N 6)
structure (smiles),measurement,setting,value
"COc1c(C)c2c(c(O)c1C/C=C(\C)CCC(=O)O)C(=O)OC2 [MPA, mycophenolic acid]",concentration at 12 h,[1]; CYP3A5*3*6*7 Extensive group (N 7),42 ng/mL
same,concentration at 12 h,[1]; CYP3A5*3*6*7 Intermediate group (N 23),41 ng/mL
same,concentration at 12 h,[1]; CYP3A5*3*6*7 Poor group (N 35),32 ng/mL
same,concentration at 12 h,[1]; Overall (N 65),37 ng/mL
C=CC[C@@H]1/C=C(\C)C[C@H](C)C[C@H](OC)[C@H]2O[C@@](O)(C(=O)C(=O)N3CCCC[C@H]3C(=O)O[C@H](/C(C)=C/[C@@H]3CC[C@@H](O)[C@H](OC)C3)[C@H](C)[C@@H](O)CC1=O)[C@H](C)C[C@@H]2OC [tacrolimus],"C max/Dose, phenotypic mean [95% CI]",[2]; ABCB1 variant haplotype TTT,4.06[3.19 – 4.93] ng/ml/mg
same,"AUC0–4, phenotypic mean [95% CI]",[2]; ABCB1 variant haplotype TTT,43.9 [33.4 – 54.4] ng.hr/ml/mg
same,"AUC*, phenotypic mean [95% CI]",[2]; ABCB1 variant haplotype TTT,92.2 [74.6 – 109.8] ng.hr/ml/mg
same,"CL_F, phenotypic mean [95% CI]",[2]; ABCB1 variant haplotype TTT,13.99 [7.87 – 20.11]* L/hr
same,"C max/Dose, phenotypic mean [95% CI]",[2]; ABCB1 wild type haplotype CGC,3.01[2.42 – 3.59] ng/ml/mg
same,"AUC0–4, phenotypic mean [95% CI]",[2]; ABCB1 wild type haplotype CGC,36.59 [30.2 – 42.9] ng.hr/ml/mg
same,"AUC*, phenotypic mean [95% CI]",[2]; ABCB1 wild type haplotype CGC,80.0[68.8 – 91.1] ng.hr/ml/mg
same,"CL_F, phenotypic mean [95% CI]",[2]; ABCB1 wild type haplotype CGC,20.4 [14.5 – 26.3]* L/hr
same,clearance,clinical; 1.58 mg,6 mL/min/kg
same,clearance,clinical; 2.45 mg,8 mL/min/kg
same,AUC0–12 Dose,[3]; [5],23.95 (8.30) ng.hr/ml/mg
same,C12hr/dose,[3]; [5],1.43 (0.55) ng/ml/mg
same,CL_F,[3]; [5],48.23 (4.32) L/hr
same,Cmax/Dose,[3]; [5],3.36 (1.19) ng/ml
same,AUC0–12 Dose,[3]; [6],36.76 (6.43) ng.hr/ml/mg
same,AUC*,[3]; [6],130.75 (9.73) ng.hr/ml
same,C12hr/dose,[3]; [6],2.16 (0.43) ng/ml/mg
same,CL_F,[3]; [6],31.30 (3.35) L/hr
same,Cmax/Dose,[3]; [6],5.21 (0.92) ng/ml
same,AUC0–12 Dose,[3]; [7],56.39 (5.64) ng.hr/ml/mg
same,C12hr/dose,[3]; [7],3.44 (0.37) ng/ml/mg
same,CL_F,[3]; [7],22.61 (2.94) L/hr
same,Cmax/Dose,[3]; [7],7.20 (0.81) ng/ml
same,AUC0–12 Dose,[3]; [8],28.97 (8.30) ng.hr/ml/mg
same,AUC*,[3]; [8],129.45 (12.57) ng.hr/ml
same,C12hr/dose,[3]; [8],1.57 (0.55) ng/ml/mg
same,CL_F,[3]; [8],39.53 (4.32) L/hr
same,Cmax/Dose,[3]; [8],4.95 (1.19) ng/ml
same,AUC0–12 Dose,[3]; [9],42.94 (6.43) ng.hr/ml/mg
same,C12hr/dose,[3]; [9],2.40 (0.43) ng/ml/mg
same,CL_F,[3]; [9],24.49 (3.35) L/hr
same,Cmax/Dose,[3]; [9],6.61 (0.92) ng/ml
same,AUC0–12 Dose,[3]; [10],56.80 (4.55) ng.hr/ml/mg
same,C12hr/dose,[3]; [10],3.30 (0.30) ng/ml/mg
same,CL_F,[3]; [10],20.09 (2.37) L/hr
same,Cmax/Dose,[3]; [10],8.09 (0.65) ng/ml
same,effect of ABCB1 3435 T allele on tacrolimus clearance,"[3]; across all 3 CYP3A5 metabolic composite groups, P = 0.040",significantly reduced
same,Tmax,"[3]; both sexes, 2.46 mg, ABCB1 3534 CC, CYP3A5 Poor (N 13)",1.94 h
same,Tmax,"[3]; both sexes, 4 mg, ABCB1 3534 CC, CYP3A5 Intermediate (N 10)",1.87 h
same,Tmax,"[3]; both sexes, 5.67 mg, ABCB1 3534 CC, CYP3A5 Extensive (N 6)",1.78 h
same,AUC,"[3]; 2.35 mg, ABCB1 3435 CT and TT, CYP3A5 Poor (N 20)",118 ng·h/mL
same,Cmax,[3]; [11],17 ng/mL
same,Tmax,[3]; [11],1.72 h
same,concentration at 12 h,[3]; [11],6.81 ng/mL
same,clearance,[3]; [11],6.5 mL/min/kg
same,AUC,"[3]; 2.46 mg, ABCB1 3435 CC, CYP3A5 Poor (N 13)",117 ng·h/mL
same,Cmax,[3]; [12],15.7 ng/mL
same,concentration at 12 h,[3]; [12],6.94 ng/mL
same,clearance,[3]; [12],6.17 mL/min/kg
same,AUC,"[3]; 3.55 mg, ABCB1 3435 CT and TT, CYP3A5 Intermediate (N 10)",150 ng·h/mL
same,Cmax,[3]; [13],23.3 ng/mL
same,Tmax,[3]; [13],2.29 h
same,concentration at 12 h,[3]; [13],8.37 ng/mL
same,clearance,[3]; [13],6.83 mL/min/kg
same,Cmax,[3]; [14],18.6 ng/mL
same,concentration at 12 h,[3]; [14],7.55 ng/mL
same,clearance,[3]; [14],9.17 mL/min/kg
same,Cmax,[3]; [15],23.7 ng/mL
same,Tmax,[3]; [15],2.03 h
same,concentration at 12 h,[3]; [15],6.58 ng/mL
same,clearance,[3]; [15],13.2 mL/min/kg
same,AUC,"[3]; 5.67 mg, ABCB1 3435 CC, CYP3A5 Extensive (N 6)",122 ng·h/mL
same,Cmax,[3]; [16],17 ng/mL
same,concentration at 12 h,[3]; [16],7.4 ng/mL
same,clearance,[3]; [16],15 mL/min/kg
same,patients with 12-h tacrolimus exposures <120 ng.hr/ml,"[4]; Blacks, 10/33",30%
same,AUC* lower in Extensive than Poor metabolizers,[4]; P < 0.001,50%
same,patients with 12-h tacrolimus exposures <120 ng.hr/ml,"[4]; Whites, 17/32",53%
same,patients exhibiting AUC0–12 h below the recommended therapeutic range,"[4]; all patients, in spite of achieving target troughs",approximately 40%
same,"dose normalized trough (Cp12hr/dose), Poor compared to Extensive Metabolizers","[4]; greater in Poor, P = 0.0016",2.5 fold
same,"dose-adjusted AUC0–12 h, Poor compared to Extensive metabolizers","[4]; higher in Poor, P < 0.001",2 fold
same,patients within the therapeutic trough range,[4]; target range >4 ng/ml and <15 ng/ml,64 of 65
